Assay results reported in article PMC2841647 (PLoS ONE, 2010).
Where “and” joins values, the source holds several entries; their conditions need not be identical. Equal values may be shown once. Read-outs that look alike come from different tables or passages of the source. Where a SMILES comes first, the peptide text is derived from it. Bridges are numbered along the chain shown (N, C = ends).

Key:
human TrkB receptor = molecular target: T1, human TrkB receptor (Homo sapiens, UniProt Q16620); assay: KIRA-ELISA (TrkB tyrosine phosphorylation) in TetOn-rhTrkB CHO cells; assay type: cell-based; settings: for IC50 / ratio signal/background / EC50: TetOn-rhTrkB cells; for EC50: read-out: EC50, TrkB activation
T1 construct: expressed in transfected cells
T1 sequence (Q16620 32-822): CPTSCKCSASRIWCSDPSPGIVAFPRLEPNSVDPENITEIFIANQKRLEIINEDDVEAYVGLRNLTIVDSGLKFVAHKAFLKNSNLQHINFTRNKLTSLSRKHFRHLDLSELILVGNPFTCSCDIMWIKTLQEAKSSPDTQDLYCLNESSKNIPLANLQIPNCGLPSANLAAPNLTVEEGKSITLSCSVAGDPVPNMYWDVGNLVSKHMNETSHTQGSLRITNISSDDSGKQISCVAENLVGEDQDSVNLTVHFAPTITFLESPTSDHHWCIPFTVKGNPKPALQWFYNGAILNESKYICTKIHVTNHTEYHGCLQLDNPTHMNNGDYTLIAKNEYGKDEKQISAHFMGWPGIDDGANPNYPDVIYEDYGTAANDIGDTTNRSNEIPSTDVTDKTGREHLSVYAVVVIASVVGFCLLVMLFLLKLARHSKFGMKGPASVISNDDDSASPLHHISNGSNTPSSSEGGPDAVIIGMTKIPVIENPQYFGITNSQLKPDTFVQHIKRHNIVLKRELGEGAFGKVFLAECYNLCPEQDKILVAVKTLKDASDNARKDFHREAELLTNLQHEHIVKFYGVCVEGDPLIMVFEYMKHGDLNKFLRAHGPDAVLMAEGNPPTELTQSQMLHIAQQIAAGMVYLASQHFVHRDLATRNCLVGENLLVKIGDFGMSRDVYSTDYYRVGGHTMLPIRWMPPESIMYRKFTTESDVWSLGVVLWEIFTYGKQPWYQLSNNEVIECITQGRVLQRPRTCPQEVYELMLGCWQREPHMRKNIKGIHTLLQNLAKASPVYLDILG
Source text: (§1) The human recombinant TrkB receptor was fluorescently tagged at its C-terminus with the Enhanced cyan fluorescent protein (rhTrkB-ECFP) by cloning the full human TrkB sequence (kindly provided by G. M. Brodeur) into the pECFP-N1 expression vector (Clontech). For inducible expression, rhTrkB-ECFP was subcloned into the tetracycline-responsive (TetOn) vector pTRE2 (Clontech). Chinese Hamster Ovary cells stably expressing rhTrkB-ECFP (TetOn-rhTrkB cells), were produced by transfection of the pTRE2-rhTrkB-ECFP plasmid into CHO-K1 TetOn cells (Clontech) followed by clone selection in 0.25 mg/ml hygromycin B (Invitrogen) and 0.1 mg/ml geneticin (G418; Invitrogen). Resistant cells were selected based on both fluorescence intensity and KIRA-ELISA profile after an overnight incubation in presence of 1000 ng/ml doxycycline (Clontech). Cortical neurons were prepared and cultured from E16 mouse embryos as described previously. The nnr5 PC12-TrkA, nnr5 PC12-TrkB and nnr5 PC12-TrkC cells (kindly provided by M. V. Chao) are NGF non-responding mutant PC12 cells stably transfected with TrkA, TrkB and TrkC cDNA, respectively.
(§2) TrkB activity was quantified using the previously described KIRA-ELISA assay with slight modifications. Cortical neurons were seeded on polyornithin-coated flat-bottom 96-well culture plates (12×10^4 cells per well) and cultured eight days at 37°C in 5% CO2. TetOn-rhTrkB cells were seeded on flat-bottom 96-well culture plates (4×10^4 cells per well) and incubated overnight with 1000 ng/ml doxycycline (Figs. S1,S2) except when indicated. Fluorescence levels in TetOn-rhTrkB cells were verified before each assay. […] Assay was stopped by removing the medium on ice and membranes were solubilized using KIRA-ELISA solubilization buffer (NaCl 150 mM, Hepes 50 mM, Triton X-100 0.5%, thimerosal 0.01%, sodium orthovanadate 2 mM, supplemented with a cocktail of protease inhibitors) for 1 h at room temperature. Solubilized membranes were transferred for 2 h at room temperature onto ELISA microtiter plate (Nunc Maxisorp) pre-coated overnight at 4°C with appropriate antibodies [polyclonal anti-GFP (1∶5000, Clontech) for TetOn-rhTrkB, polyclonal anti-TrkB (1 µg/ml, Upstate) for cultured neurons and brain slices, for phosphorylation assays; monoclonal anti-GFP (1∶3000, Chemicon) for TetOn-rhTrkB, monoclonal anti-TrkB (1∶1000, BD Biosciences) for cultured neurons and brain slices, for total TrkB quantification]. […] Absorbance was read at 450 nm after addition of 3,3′,5′,5-tetramethyl-benzidine substrate (Sigma) and acidification with 1N hydrochloric acid.
(§3) Concentration-response and competition curves were obtained using an iterative least-squares method derived from that of Parker & Waud (1971). […] Concentration-response curves and Eadie-Hofstee plots were analyzed using two-way ANOVA. Significance over time in locomotor activity studies was given using two-way ANOVA followed by Bonferroni's post-hoc test. […] One-way ANOVA followed by post-hoc Dunnett's test was used to evaluate statistical significance compare to saline group in EPM and FST procedures. n represents the number of independent experiments.

[1] = molecular target: T2, native TrkB receptors in cortical neurons (Mus musculus, UniProt P15209); assay: KIRA-ELISA (TrkB tyrosine phosphorylation) in primary cortical neurons; assay type: cell-based; settings: for EC50: read-out: EC50, TrkB activation
T2 construct: cortical neurons naturally express TrkB receptors; endogenous in cells; host or cells: primary cortical neurons from E16 mouse embryos
T2 sequence (P15209 32-821): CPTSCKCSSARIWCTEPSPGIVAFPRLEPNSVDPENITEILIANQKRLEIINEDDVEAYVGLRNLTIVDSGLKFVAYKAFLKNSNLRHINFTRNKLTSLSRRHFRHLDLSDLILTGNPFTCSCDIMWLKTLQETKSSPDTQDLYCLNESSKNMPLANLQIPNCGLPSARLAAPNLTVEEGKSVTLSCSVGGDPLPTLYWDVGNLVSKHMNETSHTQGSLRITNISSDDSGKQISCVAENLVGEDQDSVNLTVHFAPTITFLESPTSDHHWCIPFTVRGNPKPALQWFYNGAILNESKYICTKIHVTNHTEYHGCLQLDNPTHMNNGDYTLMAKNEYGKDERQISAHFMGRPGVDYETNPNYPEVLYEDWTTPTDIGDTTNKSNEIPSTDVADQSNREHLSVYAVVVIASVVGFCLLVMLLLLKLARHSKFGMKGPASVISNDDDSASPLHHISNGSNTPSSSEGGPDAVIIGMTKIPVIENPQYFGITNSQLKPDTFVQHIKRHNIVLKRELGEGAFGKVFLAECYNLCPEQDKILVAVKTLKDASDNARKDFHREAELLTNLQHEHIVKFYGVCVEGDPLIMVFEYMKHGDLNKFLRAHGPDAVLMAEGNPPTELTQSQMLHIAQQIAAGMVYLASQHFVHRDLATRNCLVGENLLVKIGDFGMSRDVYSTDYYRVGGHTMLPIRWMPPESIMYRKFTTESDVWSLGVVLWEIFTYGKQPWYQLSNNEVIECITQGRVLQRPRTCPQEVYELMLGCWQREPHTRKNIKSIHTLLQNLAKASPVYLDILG
Source text: as §1, §2, §3

nnr5 PC12-TrkB cells = settings: 48 h
nnr5 PC12 cells = assay: Morphological analysis of toxicity / cell death; assay type: cell-based; settings: 72 hours after exposure to 10 µM
mice [2] = assay: Elevated plus-maze (EPM); assay type: in vivo, mouse; settings: vs saline
Protocol: (§4) Mice were treated as described above before being subjected to behavioral studies. Predictive estimation for anxiolytic properties of tat-cyclotraxin-B was assessed using open field and elevated plus-maze (EPM). Antidepressant-like action of tat-cyclotraxin-B was assessed with the forced-swim test (FST). Effects of acute treatment with tat-cyclotraxin-B on spontaneous locomotion, exploration and reactivity to a novel open field was assessed in plexiglas activity chambers (Med Associates; 45×45×31 cm). Mice were placed into the center of the open field, and activity was recorded for 30 min. Testing took place under bright ambient light conditions to increase the anxiety component of the center areas of the field (defined as the central 15×15 cm portion). Mice subjected to EPM received a double 90-interval i.v. injection of tat-cyclotraxin-B or saline buffer before being placed on the platform of the EPM and assessed for 5 min (26×5×36 cm). The diazepam control group consisted of saline buffer double-treated mice that further received a 30-min i.p. injection of diazepam (1 mg/kg). Mice were assessed for number of entries and amount of time spent in open versus closed arms. The FST procedure was applied to treated mice as described by Porsolt et al. (see ref. [60]). Mice were dropped individually into glass cylinder (height, 25 cm; diameter, 10 cm) containing 10 cm water height, maintained at 23–25°C. Animals were tested for a total of 6 min. The total time of swimming, the number of climbing attempts and the time of immobility was recorded during the last 4 min of the session, after 2 min of habituation. The paroxetine control group consisted of saline buffer double-treated mice that further received a 30-min i.p. injection of paroxetine (2 mg/kg). Behaviors were recorded on videotape and scored blind.

mice [3] = assay: Forced swim test (FST); assay type: in vivo, mouse; settings: acute treatment, vs saline
Protocol: as §4

TrkB in brain slices = molecular target: T3, TrkB in brain slices (Mus musculus, UniProt P15209); assay: KIRA-ELISA in brain slices incubated with peptide; assay type: cell-based; settings: peptide added to brain slices
T3 construct: KIRA-ELISA analysis of brain TrkB receptors from mice; from tissue; host or cells: adult Swiss mouse brain, 300-µm coronal slices
T3 sequence (P15209 32-821): as above
Protocol: TrkB activity was quantified using the previously described KIRA-ELISA assay with slight modifications. Cortical neurons were seeded on polyornithin-coated flat-bottom 96-well culture plates (12×10^4 cells per well) and cultured eight days at 37°C in 5% CO2. TetOn-rhTrkB cells were seeded on flat-bottom 96-well culture plates (4×10^4 cells per well) and incubated overnight with 1000 ng/ml doxycycline (Figs. S1,S2) except when indicated. Fluorescence levels in TetOn-rhTrkB cells were verified before each assay. […] Solubilized membranes were transferred for 2 h at room temperature onto ELISA microtiter plate (Nunc Maxisorp) pre-coated overnight at 4°C with appropriate antibodies [polyclonal anti-GFP (1∶5000, Clontech) for TetOn-rhTrkB, polyclonal anti-TrkB (1 µg/ml, Upstate) for cultured neurons and brain slices, for phosphorylation assays; monoclonal anti-GFP (1∶3000, Chemicon) for TetOn-rhTrkB, monoclonal anti-TrkB (1∶1000, BD Biosciences) for cultured neurons and brain slices, for total TrkB quantification]. […] Absorbance was read at 450 nm after addition of 3,3′,5′,5-tetramethyl-benzidine substrate (Sigma) and acidification with 1N hydrochloric acid.

[4] = TrkB + p75NTR co-expressing cortical neurons

For `COC(=O)[C@@]1(O)C[C@H]2O[C@]1(C)n1c3ccccc3c3c4c(c5c6ccccc6n2c5c31)C(=O)NC4` [K252a, reference compound], the “reversal of BDNF signal” value (human TrkB receptor; KIRA-ELISA, BDNF 4 nM, TetOn-rhTrkB cells and cortical neurons (Fig. S2)) was “fully reversed”.

In the case of `CSCC[C@@H]1NC(=O)[C@@H]2CCCN2C(=O)[C@H](CC(N)=O)NC(=O)[C@@H](N)CSSC[C@@H](C(=O)O)NC(=O)CNC(=O)[C@H](CCC(=O)O)NC(=O)[C@H](CCCCN)NC(=O)[C@H]([C@@H](C)O)NC(=O)[C@H](Cc2ccc(O)cc2)NC(=O)CNC1=O` [cyclotraxin-B] (H-CNPMGYTKEGC-OH; disulfide 1-11; N-terminus and C-terminus assumed), the IC50 ([1]; cortical neurons, with BDNF, read-out: IC50, inhibition of BDNF-induced TrkB activity) is reported as 0.0671 ± 0.0189 nM, the IC50 ([1]; neurons, without BDNF, read-out: IC50, BDNF-independent (basal) TrkB activity) is reported as 0.0657 ± 0.0217 nM and the IC50 (nnr5 PC12-TrkB cells) is reported as 0.0122 ± 0.0085 nM. The IC50 (human TrkB receptor; with BDNF, read-out: IC50, inhibition of BDNF-induced TrkB activity) was 0.3 ± 0.07 nM, the IC50 (human TrkB receptor; without BDNF, read-out: IC50, BDNF-independent (basal) TrkB activity) was 0.28 ± 0.08 nM and the cell death (nnr5 PC12 cells) was “no cell death”.

In the case of `C[C@@H]1C[C@H]2[C@@H]3CCC4=CC(=O)C=C[C@]4(C)[C@@]3(F)[C@@H](O)C[C@]2(C)[C@@]1(O)C(=O)CO` [dexamethasone, reference compound], the “TrkB phosphorylation (indirect activation)” value ([1]; cortical neurons, 1 µM, 2 h) is reported as “significantly triggered”.

`CN1C(=O)CN=C(c2ccccc2)c2cc(Cl)ccc21` [diazepam, reference compound] was tested, and the “EPM number of entries in open arms” value (mice [2]) was “significantly increased” and the “EPM time spent in open arms” value (mice [2]) was “significantly increased”.

`Fc1ccc([C@@H]2CCNC[C@H]2COc2ccc3c(c2)OCO3)cc1` [paroxetine, reference compound] was tested, and the FST climbing attempts (mice [3]) was “increased” and the “FST time of immobility” value (mice [3]) was “significant decreased”.

NGF: neurotrophin was tested, and the KIRA-ELISA signal ([1]; neuronal cells) was “did not produce any signal” and the KIRA-ELISA signal (human TrkB receptor; recombinant cells) was “did not produce any signal”.

For NT-3: neurotrophin, the “agonist behaviour at TrkB” value [1, 4] was “partial agonist”, the ratio signal/background [1, 4] was 1.7 and the EC50 ([1]; neuronal TrkB receptors) was 0.716 ± 0.167 nM. It also gave a ratio signal/background (human TrkB receptor) of 3.8 and an EC50 (human TrkB receptor) of 0.702 ± 0.134 nM.

“YGRKKRRQRRR [tat-empty, reference compound]” was tested, and the “TrkB inhibition in brain slices” value (TrkB in brain slices) was “did not produce any effect”.

B1: BDNF: neurotrophin, cognate ligand of TrkB; mature recombinant human BDNF (Peprotech) (protein, UniProt P23560 19-247, looked up)
Neurotrophic factor BDNF …: APMKEANIRGQGGLAYPGVRTHGTLESVNGPKAGSRGLTSLADTFEHVIEELLDEDQKVRPNEENNKDADLYTSRVMLSSQVPLEPPLLFLLEEYKNYLDAANMSMRVRRHSDPARRGELSVCDSISEWVTAADKKTAVDMSGGTVTVLEKVPVSKGQLKQYFYETKCNPMGYTKEGCRGIDKRHWNSQCRTTQSYVRALTMDSKKRIGWRFIRIDTSCVCTLTIKRGR
B1 was tested, and the EC50 ([1]; cortical neurons, agonist alone) was 0.186 nM and 0.208 nM, the ratio signal/background (human TrkB receptor) was 3.94 and the EC50 (human TrkB receptor; agonist alone) was 0.672 nM and 0.614 nM.
